Results on one molecule are retold here after patent US20150065717A1, “NIPECOTIC ACID DERIVATIVE AND USE THEREOF FOR MEDICAL PURPOSES” (Toray Industries, Inc., priority 2012, published 2015).

For series [1], the system named is rat monocrotaline-administered pulmonary hypertension model. In words: Action on systemic blood pressure in rat monocrotaline-administered pulmonary hypertension model, single dose. Type of series: in vivo, rat (SD strain). The following applies: single oral dose of 10 mg/kg on day 9 after monocrotaline; Hour 1, 2, 3, 4, 5 and 6 after administration. How it is done: Example Compound 1 was administered to monocrotaline-administered pulmonary hypertension model rats in a single dose, and the action of the nipecotic acid derivative (I) or a pharmaceutically acceptable salt thereof on the systemic blood pressure from immediately after the administration was evaluated.
Pulmonary hypertension was induced in Rats (SD strain, male, 11 weeks old; Charles River Laboratories Japan, Inc.) by subcutaneous administration of an aqueous monocrotaline (Sigma Corporation) solution (60 mg/kg) to the back.
On Day 7 after administration of monocrotaline, the rats with induced pulmonary hypertension were anesthetized, and hair in the femoral region and the nape was removed, followed by disinfection of the operative field using Isodine solution. […] The blood pressure was analyzed after amplification by Blood Pressure Amplifier, and the heart rate was analyzed via Heart Rate Counter using the pulse waveform as a trigger. […] From immediately after administration of Example Compound 1 or 0.5% aqueous methyl cellulose solution supplemented with 0.5% Tween 80, the mean systemic blood pressure was measured at Hour 1, 2, 3, 4, 5 and 6 after administration.

Series [2] shares this test system. In words: Rat monocrotaline-administered pulmonary hypertension model, administration from advanced stage. Type of series: in vivo, rat (Wistar strain). Conditions: 10 mg/kg orally once per day for 18 or 19 days from Day 10 after monocrotaline; t-test p<0.05; FIG. 7. The protocol:
Rats (Wistar strain, male, 5 weeks old; JAPAN SLC, Inc.) with pulmonary hypertension induced by subcutaneous administration of an aqueous monocrotaline (Sigma Corporation) solution (60 mg/kg) to the back were provided as “group with induced pulmonary hypertension”. On the other hand, rats to which water for injection was similarly administered were provided as “normal group”.
To rats in the group with induced pulmonary hypertension, Example Compound 1 (3 or 10 mg/kg) or a positive control compound tadalafil (10 mg/kg) was orally administered once per day. Administration of Example Compound 1 (3 or 10 mg/kg) was carried out for 18 or 19 days from Day 10 after the administration of monocrotaline. Administration of tadalafil (10 mg/kg) was carried out for 28 or 29 days from the day of administration of monocrotaline. […]
On the last day of administration of the test compound, blood was collected from the abdominal vena cava of each rat under anesthesia, and the rat was then euthanized, followed by removal of the heart for measurement of the wet weights of the right ventricle, left ventricle and septum to determine the right ventricular weight ratio (right ventricular weight/(septum weight+left ventricular weight)). The 14,15-DHET concentration in the collected blood was measured by the ELISA method. […]

For `CCC(=O)NC1(C(=O)N2CCC[C@@H](C(=O)NCc3ccc(C#N)cc3OC(F)(F)F)C2)CCC1` [Example Compound 1, (R)—N-(4-cyano-2-(trifluoromethoxy)benzyl)-1-(1-propionamidocyclobutanecarbonyl)piperidine-3-carboxamide], the “mean systemic blood pressure vs pulmonary hypertension control group” value in series [1] is “no significant difference”. Moreover, in series [2], the “right ventricular weight ratio vs pulmonary hypertension control group” value is “statistically significantly lower”.
